Data on two compounds can be found in publication PMC10778976, “BAY-3827 and SBI-0206965: Potent AMPK Inhibitors That Paradoxically Increase Thr172 Phosphorylation” (International Journal of Molecular Sciences, 2023).

Like-named read-outs stand apart in the source and are kept apart here.

The target in test [1] is T1, isolated kinase domain of the human α2 isoform (residues 1–310) (Homo sapiens, UniProt P54646).
T1 construct: human GST-tagged α2 kinase domain (1–310) was produced as described; GST; made in house
T1 sequence (P54646 1-310): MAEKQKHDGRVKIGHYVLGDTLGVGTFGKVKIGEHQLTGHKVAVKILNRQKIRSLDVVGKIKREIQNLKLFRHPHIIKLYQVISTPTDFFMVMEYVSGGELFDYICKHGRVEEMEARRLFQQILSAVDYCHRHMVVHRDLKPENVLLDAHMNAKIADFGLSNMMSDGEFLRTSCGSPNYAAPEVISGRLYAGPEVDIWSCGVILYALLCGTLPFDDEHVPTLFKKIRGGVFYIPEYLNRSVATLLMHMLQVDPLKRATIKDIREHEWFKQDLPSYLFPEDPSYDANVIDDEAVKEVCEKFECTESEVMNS
In words: Cell-free kinase assay of isolated α2 kinase domain phosphorylated on Thr172 by CaMKK2. Format: biochemical. The note with it: for IC50: ATP 200 µM, read-out: IC50, inhibition of human α2 kinase domain. The text has this: AMPK assays measured the transfer of radioactivity from labelled ATP to a peptide substrate, which was separated from unreacted ATP by binding to P81 paper. This assay was described previously, except that we used [γ-^33P]ATP rather than [γ-^32P]ATP. The peptide substrate was the AMARA peptide in all experiments other than one, which analyzed allosteric activation by AMP (Figure 2A), when, for technical reasons, the SAMS peptide was used instead. With purified preparations of AMPK, it was assayed in solution, but for assays in cell lysates (Figure 3D and Figure 4D), it was first immunoprecipitated using a mixture of anti-α1 and -α2 antibodies and assayed in resuspended immunoprecipitates. After the initial immunoprecipitation of lysate containing 80 µg of protein, the pellets were washed twice with 1 mL of high salt IP buffer (50 mM Tris-HCL, pH 7.4 at 4 °C, 1 M NaCl, 1 mM EDTA, 1 mM EGTA, 50 mM NaF, 5 mM Na pyrophosphate, 1 mM dithiothreitol, 0.1% (v/v) Triton X-100) and twice with 1 mL of low salt IP buffer (as above but only 150 mM NaCl), followed by a final wash in 1 mL of assay buffer (50 mM Na Hepes, pH7.4, 150 mM NaCl, 1 mM dithiothreitol, 0.02% (v/v) Brij-35). After each wash, the pellet was recovered via centrifugation (16,000× g, 3 min) and then resuspended. The final resuspended pellets from each biological replicate were divided into two aliquots (40 µg lysate protein) to provide technical replicates and assayed as above.
Bacterially expressed heterotrimers and kinase domain constructs (Figure 1B–D) were activated through Thr172 phosphorylation using ATP and GST-tagged CaMKK2, and CaMKK2 was removed via passage through glutathione-Sepharose, as described previously.

The test system of test [2] is GBF1 (Thr1337) phosphorylation in U2OS cells. In words: GBF1 phosphorylation in U2OS cells (Western blot). The test is classed as cell-based, human. Conditions: 30 min inhibitor then 30 min MK-8722 (300 nM), read-out: IC50, inhibition of MK-8722-stimulated GBF1 phosphorylation. On the procedure:
(§1) T-Rex U2OS cells carrying a Flp Recombinase Target (FRT) site were generated as described previously and grown in Dulbecco’s Modified Eagle’s Medium (DMEM) supplemented with 10% (v/v) FBS and 1% (v/v) penicillin/streptomycin.
(§2) Cells were lysed rapidly in situ on culture plates using ice-cold lysis medium containing phosphatase inhibitors, as described previously.
(§3) SDS-PAGE was performed using precast NuPAGE Tris-acetate 3–8% gradient polyacrylamide gels in Tris-acetate running buffer when analyzing ACC, GBF1, or Raptor, or NuPAGE Bis-Tris 4–12% gradient polyacrylamide gels in the MOPS buffer system (ThermoFisher Scientific, Waltham, MA, USA) for other proteins (unless stated otherwise). Proteins were transferred to nitrocellulose membranes using the iBlot 2 system (ThermoFisher Scientific). Membranes were enhanced if necessary using SuperSignal Western Blot Enhancer (ThermoFisher Scientific), then blocked for 1 h in Li-Cor Odyssey blocking buffer. The membranes were probed with the appropriate primary antibody ([…]) overnight at 4 °C. Detection was performed using secondary antibody or streptavidin probe (for total ACC) coupled to IR 680 or IR 800 dye, and the membranes were scanned using the LICOR Odyssey IR imager. Protein concentrations were determined by Coomassie Blue binding with bovine serum albumin as a standard. The cellular levels of AMP and ATP were determined via direct perchloric acid extraction from cells, with LC:MS used to estimate the levels of each nucleotide.

Test [3] deals with phosphorylation of Thr172 on AMPK-α in U2OS cells. Kind of test: AMPK Thr172 phosphorylation in U2OS cells (Western blot). Format: cell-based, human. On the procedure: as §1, §2, §3
Test [4] concerns acetyl-CoA carboxylase (ACC, Ser80) phosphorylation in U2OS cells. In words: ACC phosphorylation in U2OS cells (Western blot). Conditions: 30 min inhibitor then 30 min MK-8722 (300 nM), read-out: IC50, inhibition of MK-8722-stimulated ACC phosphorylation. The test is classed as cell-based, human. On the procedure:
as §1, §2, §3

A further test concerns U2OS cells. In words: Cellular AMP:ATP ratio via LC:MS in U2OS cells. The test is classed as cell-based, human. On the procedure: as §1, §3

Consider `CCc1ccccc1C(=O)Nc1n[nH]c2c(C)c(F)c(C3C(C#N)=C(C)N(C)C(C)=C3C#N)cc12` [BAY-3827], for which the IC50 was determined as 89 nM in test [1]; 55 nM in test [2] (Homo sapiens, 0.5 h); 270 nM in test [4]; 260 nM in test [4] (Homo sapiens, U2OS, 0.5 h). Besides, the “Apparent Vmax” value in test [1] (BAY-3827 10 nM) worked out at 2.09 µmol/min/mg; in test [1] (BAY-3827 30 nM) it was 1.78 µmol/min/mg; in test [1] (BAY-3827 100 nM) it was 1.69 µmol/min/mg; in test [1] (BAY-3827 300 nM), 1.27 µmol/min/mg. Further, the concentration for a half-maximal effect (EC50) in test [3] (Homo sapiens, read-out: EC50, half-maximal increase of Thr172 phosphorylation) stood at 164 nM. In addition, the “maximum increase of Thr172 phosphorylation” value in test [3] (pThr172:total AMPK relative to control) stood at 9.7 fold. In addition, the “effect on cellular AMP:ATP ratios” value with U2OS cells (all concentrations used) is “did not cause any change”.
With `CNC(=O)c1ccccc1Oc1nc(Nc2cc(OC)c(OC)c(OC)c2)ncc1Br` [SBI-0206965], the results for the IC50 in test [1], in test [2] and in test [4] were 545 nM, 12000 nM and 42000 nM, respectively. For the same compound, the “increase of Thr172 phosphorylation, maximal effect at low concentrations” value in test [3] (3–30 µM) was “about 2 fold”. For the same compound, in test [3] (100–300 µM, not saturated), the “increase of Thr172 phosphorylation at high concentrations” value came to 4 fold. Besides, the “increase in cellular AMP:ATP ratio” value in the test with U2OS cells (300 µM, 1 h incubation) is given as above 30 fold.
